In patent US20260015358A1, “BICYCLIC DERIVATIVES, COMPOSITIONS AND USES THEREOF” (Danatlas Pharmaceuticals Co., Ltd., priority 2023, published 2026):

Legend:
[1] = target: T1, WRN [UniPro: Q14191 (WRN_HUMAN), N500-C946] (Homo sapiens (Human), UniProt Q14191); test: WRN ATPase assay (ADP-Glo); type: biochemical; conditions: WRN enzymatic activity assay
Procedure: WRN ATPase assay was initiated to evaluate potential inhibitory effect of compounds for ATP hydrolysis activity of WRN protein. WRN [UniPro: Q14191 (WRN_HUMAN), N500-C946] was expressed and purified in insect system and stored at −80° C. in aliquots. […] ADP quantity produced from ATP hydrolysis by WRN catalytic reaction was measured using a commercially available ADP-Glo Assay (ADP-Glo™ Kinase Assay from Promega, 10000 assays, #V9102). […] Compounds dissolved in DMSO (Sigma, D8418) were plated into a 96-well intermediate plate (BioFil, VWP-032-096) for 3-fold serial titration for 10 points using DMSO, and well-to-well transfer the titrated compounds into another 96-well intermediate plate including assay buffer in advance. Shake the 96-well intermediate plate at 600 rpm for 10 min to fully mix. Specifically, a 4× working mixture of WRN was diluted to a concentration of 8 nM in assay buffer. […] After centrifuging at 1000 rpm and shaking at 500 rpm, the assay plate was pre-incubated for 30 min. Then, 5 μL 2×FORKF DNA and ATP working mixture was dispensed into assay plate. Plate was sealed, centrifuged and incubated for an additional 40 min. at 37° C. The reaction was stopped with the addition of 10 μL of the first ADP-Glo reagent and incubated for 40 min. to remove the excess amount of ATP. Afterwards, 20 μL of ATP detection reagent was added and incubated for 30 min. before reading. Luminescence output was recorded using BMG CLARIO star plus reader. Each concentration of compound was tested in duplicates in the assay plate. Average luminescence signal of high control (Wells with 1% DMSO) was calculated as High Control (HC). Average luminescence signal of low control (Wells with no WRN protein) was calculated as Low control (LC).
IC50 values were determined by fitting the data to the standard 4 parameters with Hill Slope using GraphPad Prism software.

[2] = target: T1, WRN [UniPro: Q14191 (WRN_HUMAN), N500-C946]; test: WRN unwinding assay (FORKF DNA, fluorescence); type: biochemical; conditions: Table 14

T1 sequence (Q14191 500-946): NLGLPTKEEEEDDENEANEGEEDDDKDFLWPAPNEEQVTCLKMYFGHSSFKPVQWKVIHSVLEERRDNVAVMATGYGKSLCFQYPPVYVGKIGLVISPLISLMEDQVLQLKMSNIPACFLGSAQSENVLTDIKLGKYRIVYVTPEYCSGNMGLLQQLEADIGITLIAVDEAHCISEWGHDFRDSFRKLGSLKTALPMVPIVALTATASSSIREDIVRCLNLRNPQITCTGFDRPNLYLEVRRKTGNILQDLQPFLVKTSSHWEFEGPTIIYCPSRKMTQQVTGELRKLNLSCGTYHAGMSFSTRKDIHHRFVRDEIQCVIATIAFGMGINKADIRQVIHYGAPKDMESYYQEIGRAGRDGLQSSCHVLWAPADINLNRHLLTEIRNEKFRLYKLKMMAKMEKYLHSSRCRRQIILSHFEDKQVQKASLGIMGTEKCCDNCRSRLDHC

IC50 [1] [nM] | IC50 [2] [nM] | SMILES
100 to 1000 | 100 to 1000 | CCc1c(N2CCN(C(=O)c3nc(C(F)(F)F)c[nH]3)CC2)c(=O)n2nc(C3=CCOCC3)nc2n1CC(=O)Nc1ccc(C(F)(F)F)cc1Cl [Example 1, N-(2-Chloro-4-(trifluoromethyl)phenyl)-2-(2-(3,6-dihydro-2H-pyran-4-yl)-5-ethyl-7-oxo-6-(4-(4-(trifluoromethyl)-1H-imidazole-2-carbonyl)piperazin-1-yl)-[1,2,4]triazolo[1,5-a]pyrimidin-4(7H)-yl)acetamide]
< 100 | < 100 | CCNc1ccc(F)c(C(=O)NCC(=O)N2CCN(c3c(CC)n(CC(=O)Nc4ccc(C(F)(F)F)cc4Cl)c4nc(C5=CCOCC5)nn4c3=O)CC2)c1 [Example 374, N-(2-(4-(4-(2-((2-Chloro-4-(trifluoromethyl)phenyl)amino)-2-oxoethyl)-2-(3,6-dihydro-2H-pyran-4-yl)-5-ethyl-7-oxo-4,7-dihydro-[1,2,4]triazolo[1,5-a]pyrimidin-6-yl)piperazin-1-yl)-2-oxoethyl)-5-(ethylamino)-2-fluorobenzamide]
< 100 | < 100 | CCc1c(N2CCN(C(=O)C(=O)Nc3cc(C)[nH]n3)CC2)c(=O)n2nc(C3=CCOCC3)nc2n1CC(=O)Nc1ccc(C(F)(F)F)cc1Cl [Example 331, 2-(4-(4-(2-((2-Chloro-4-(trifluoromethyl)phenyl)amino)-2-oxoethyl)-2-(3,6-dihydro-2H-pyran-4-yl)-5-ethyl-7-oxo-4,7-dihydro-[1,2,4]triazolo[1,5-a]pyrimidin-6-yl)piperazin-1-yl)-N-(5-methyl-1H-pyrazol-3-yl)-2-oxoacetamide]
< 100 | 100 to 1000 | CCc1c(N2CCN(C(=O)CNC(=O)c3ccccc3F)CC2)c(=O)n2nc(N3CC(F)(F)C3)nc2n1CC(=O)Nc1ccc(C(F)(F)F)cc1Cl [Example 244, N-(2-(4-(4-(2-((2-Chloro-4-(trifluoromethyl)phenyl)amino)-2-oxoethyl)-2-(3,3-difluoroazetidin-1-yl)-5-ethyl-7-oxo-4,7-dihydro-[1,2,4]triazolo[1,5-a]pyrimidin-6-yl)piperazin-1-yl)-2-oxoethyl)-2-fluorobenzamide]
100 to 1000 | 100 to 1000 | CCc1c(N2CCN(C(=O)c3cc4cnccc4[nH]3)CC2)c(=O)n2nc(C3=CCOCC3)nc2n1CC(=O)Nc1ccc(C(F)(F)F)cc1Cl [Example 313, 2-(6-(4-(1H-Pyrrolo[3,2-c]pyridine-2-carbonyl)piperazin-1-yl)-2-(3,6-dihydro-2H-pyran-4-yl)-5-ethyl-7-oxo-[1,2,4]triazolo[1,5-a]pyrimidin-4(7H)-yl)-N-(2-chloro-4-(trifluoromethyl)phenyl)acetamide]
100 to 1000 | 100 to 1000 | CCc1c(N2CCN(C(=O)c3ccc[nH]c3=O)CC2)c(=O)n2nc(C3=CCOCC3)nc2n1CC(=O)Nc1ccc(C(F)(F)F)cc1Cl [Example 65, N-(2-Chloro-4-(trifluoromethyl)phenyl)-2-(2-(3,6-dihydro-2H-pyran-4-yl)-5-ethyl-7-oxo-6-(4-(2-oxo-1,2-dihydropyridine-3-carbonyl)piperazin-1-yl)-[1,2,4]triazolo[1,5-a]pyrimidin-4(7H)-yl)acetamide]
< 100 | < 100 | CCc1c(N2CCN(C(=O)CNC(=O)c3nc(N)ccc3F)CC2)c(=O)n2nc(C3=CCOCC3)nc2n1CC(=O)Nc1ccc(C(F)(F)F)cc1Cl [Example 367, 6-Amino-N-(2-(4-(4-(2-((2-chloro-4-(trifluoromethyl)phenyl)amino)-2-oxoethyl)-2-(3,6-dihydro-2H-pyran-4-yl)-5-ethyl-7-oxo-4,7-dihydro-[1,2,4]triazolo[1,5-a]pyrimidin-6-yl)piperazin-1-yl)-2-oxoethyl)-3-fluoropicolinamide]
100 to 1000 | 100 to 1000 | CCc1c(N2CCN(C(=O)CNC(=O)c3ccccc3)CC2)c(=O)n2nc(-c3cnc4c(c3)CCCO4)nc2n1CC(=O)Nc1ccc(C(F)(F)F)cc1Cl [Example 236, N-(2-(4-(4-(2-((2-Chloro-4-(trifluoromethyl)phenyl)amino)-2-oxoethyl)-2-(3,4-dihydro-2H-pyrano[2,3-b]pyridin-6-yl)-5-ethyl-7-oxo-4,7-dihydro-[1,2,4]triazolo[1,5-a]pyrimidin-6-yl)piperazin-1-yl)-2-oxoethyl)benzamide]
< 100 | 100 to 1000 | CCc1c(N2CCN(C(=O)CNC(=O)c3cc(N(C)C)ccc3F)CC2)c(=O)n2nc(C3=CCOCC3)nc2n1CC(=O)Nc1ccc(C(F)(F)F)cc1F [Example 224, N-(2-(4-(2-(3,6-Dihydro-2H-pyran-4-yl)-5-ethyl-4-(2-((2-fluoro-4-(trifluoromethyl)phenyl)amino)-2-oxoethyl)-7-oxo-4,7-dihydro-[1,2,4]triazolo[1,5-a]pyrimidin-6-yl)piperazin-1-yl)-2-oxoethyl)-5-(dimethylamino)-2-fluorobenzamide]
< 100 | < 100 | CCc1c(N2CCN(C(=O)CNC(=O)Nc3ccccc3Cl)CC2)c(=O)n2nc(C3=CCOCC3)nc2n1CC(=O)Nc1ccc(C(F)(F)F)cc1Cl [Example 181, N-(2-Chloro-4-(trifluoromethyl)phenyl)-2-(6-(4-(((2-chlorophenyl)carbamoyl)glycyl)piperazin-1-yl)-2-(3,6-dihydro-2H-pyran-4-yl)-5-ethyl-7-oxo-[1,2,4]triazolo[1,5-a]pyrimidin-4(7H)-yl)acetamide]
< 100 | < 100 | CCc1c(N2CCN(C(=O)CNC(=O)c3ccns3)CC2)c(=O)n2nc(C3=CCOCC3)nc2n1CC(=O)Nc1ccc(C(F)(F)F)cc1Cl [Example 369, N-(2-(4-(4-(2-((2-Chloro-4-(trifluoromethyl)phenyl)amino)-2-oxoethyl)-2-(3,6-dihydro-2H-pyran-4-yl)-5-ethyl-7-oxo-4,7-dihydro-[1,2,4]triazolo[1,5-a]pyrimidin-6-yl)piperazin-1-yl)-2-oxoethyl) isothiazole-5-carboxamide]
100 to 1000 | 100 to 1000 | CCc1c(N2CCN(S(N)(=O)=O)CC2)c(=O)n2nc(C3=CCOCC3)nc2n1CC(=O)Nc1ccc(C(F)(F)F)cc1Cl [Example 28, N-(2-Chloro-4-(trifluoromethyl)phenyl)-2-(2-(3,6-dihydro-2H-pyran-4-yl)-5-ethyl-7-oxo-6-(4-sulfamoylpiperazin-1-yl)-[1,2,4]triazolo[1,5-a]pyrimidin-4(7H)-yl)acetamide]
< 100 | < 100 | CCc1c(N2CCN(C(=O)CNC(=O)c3ncccc3F)CC2)c(=O)n2nc(C3=CCOCC3)nc2n1CC(=O)Nc1ccc(C(F)(F)F)cc1Cl [Example 133, N-(2-(4-(4-(2-((2-Chloro-4-(trifluoromethyl)phenyl)amino)-2-oxoethyl)-2-(3,6-dihydro-2H-pyran-4-yl)-5-ethyl-7-oxo-4,7-dihydro-[1,2,4]triazolo[1,5-a]pyrimidin-6-yl)piperazin-1-yl)-2-oxoethyl)-3-fluoropicolinamide]
< 100 | < 100 | CCc1c(N2CCN(C(=O)CNC(=O)c3ncnc(C)c3O)CC2)c(=O)n2nc(C3=CCOCC3)nc2n1CC(=O)Nc1ccc(C(F)(F)F)cc1Cl [Example 210, N-(2-(4-(4-(2-((2-Chloro-4-(trifluoromethyl)phenyl)amino)-2-oxoethyl)-2-(3,6-dihydro-2H-pyran-4-yl)-5-ethyl-7-oxo-4,7-dihydro-[1,2,4]triazolo[1,5-a]pyrimidin-6-yl)piperazin-1-yl)-2-oxoethyl)-5-hydroxy-6-methylpyrimidine-4-carboxamide]
< 100 | < 100 | CCc1c(N2CCN(C(=O)C(=O)Nc3nc(C)cs3)CC2)c(=O)n2nc(C3=CCOCC3)nc2n1CC(=O)Nc1ccc(C(F)(F)F)cc1F [Example 350, 2-(4-(2-(3,6-Dihydro-2H-pyran-4-yl)-5-ethyl-4-(2-((2-fluoro-4-(trifluoromethyl)phenyl)amino)-2-oxoethyl)-7-oxo-4,7-dihydro-[1,2,4]triazolo[1,5-a]pyrimidin-6-yl)piperazin-1-yl)-N-(4-methylthiazol-2-yl)-2-oxoacetamide]
100 to 1000 | 100 to 1000 | CCc1c(N2CCN(C(=O)Nc3[nH]ncc3C(F)(F)F)CC2)c(=O)n2nc(C3=CCOCC3)nc2n1CC(=O)Nc1ccc(C(F)(F)F)cc1Cl [Example 18, 4-(4-(2-((2-Chloro-4-(trifluoromethyl)phenyl)amino)-2-oxoethyl)-2-(3,6-dihydro-2H-pyran-4-yl)-5-ethyl-7-oxo-4,7-dihydro-[1,2,4]triazolo[1,5-a]pyrimidin-6-yl)-N-(4-(trifluoromethyl)-1H-pyrazol-5-yl)piperazine-1-carboxamide]
